The text below walks through data of patent US10266497B2 (ABIDE THERAPEUTICS, INC., priority 2017, dated 2019).

For assay [1], the target named is T1, MAGL (Mus musculus, UniProt O35678).
T1 sequence (O35678 1-303): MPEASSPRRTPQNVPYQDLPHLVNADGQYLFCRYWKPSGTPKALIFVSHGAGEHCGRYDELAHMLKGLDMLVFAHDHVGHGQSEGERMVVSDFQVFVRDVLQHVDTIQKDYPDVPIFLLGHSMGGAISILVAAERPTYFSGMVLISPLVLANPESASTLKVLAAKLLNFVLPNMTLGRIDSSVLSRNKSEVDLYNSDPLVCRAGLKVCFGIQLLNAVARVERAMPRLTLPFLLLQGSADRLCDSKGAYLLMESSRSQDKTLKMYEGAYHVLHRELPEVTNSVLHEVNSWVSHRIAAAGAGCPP
The assay is described as follows: In vitro competitive activity-based protein profiling, MAGL, mouse. The note with it: read-out: MAGL % inh. 1 μM (mouse).

Assay [2] addresses T2, MAGL (Homo sapiens, UniProt Q99685).
T2 sequence (Q99685 1-303): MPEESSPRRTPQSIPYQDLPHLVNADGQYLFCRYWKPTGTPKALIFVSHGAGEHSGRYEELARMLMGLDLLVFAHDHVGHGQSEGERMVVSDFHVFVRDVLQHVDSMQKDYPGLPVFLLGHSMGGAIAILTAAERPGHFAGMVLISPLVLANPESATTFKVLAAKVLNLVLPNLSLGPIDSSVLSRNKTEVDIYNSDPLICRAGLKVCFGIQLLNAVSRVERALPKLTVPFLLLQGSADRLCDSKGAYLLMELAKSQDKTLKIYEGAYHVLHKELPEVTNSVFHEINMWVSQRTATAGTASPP
The assay is described as follows: In vitro competitive activity-based protein profiling, MAGL, human. The note with it: for inhibition at 1 µM: read-out: MAGL % inh. 1 μM (human).

The target of assay [3] is T3, FAAH (Homo sapiens, UniProt O00519).
T3 sequence (O00519 1-579): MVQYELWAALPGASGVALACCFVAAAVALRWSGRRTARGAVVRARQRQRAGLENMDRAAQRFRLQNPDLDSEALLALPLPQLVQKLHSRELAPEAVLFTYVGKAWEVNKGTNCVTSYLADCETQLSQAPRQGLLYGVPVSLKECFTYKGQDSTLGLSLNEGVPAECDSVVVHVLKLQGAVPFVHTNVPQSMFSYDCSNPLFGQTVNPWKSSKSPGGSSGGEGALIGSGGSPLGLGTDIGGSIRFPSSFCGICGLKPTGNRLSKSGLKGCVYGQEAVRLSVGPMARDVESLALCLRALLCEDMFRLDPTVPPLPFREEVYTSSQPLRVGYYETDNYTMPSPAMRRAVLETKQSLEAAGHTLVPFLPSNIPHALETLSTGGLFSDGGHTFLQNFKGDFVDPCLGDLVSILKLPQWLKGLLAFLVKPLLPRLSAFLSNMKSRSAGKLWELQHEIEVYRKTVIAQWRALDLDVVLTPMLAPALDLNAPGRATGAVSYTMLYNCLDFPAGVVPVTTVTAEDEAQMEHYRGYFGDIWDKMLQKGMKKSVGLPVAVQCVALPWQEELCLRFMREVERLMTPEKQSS
The assay is described as follows: In vitro competitive activity-based protein profiling, FAAH, human. Conditions: for inhibition at 1 µM: read-out: FAAH % inh. 1 μM (human).

The target of assay [4] is T4, FAAH (Mus musculus, UniProt O08914).
T4 sequence (O08914 1-579): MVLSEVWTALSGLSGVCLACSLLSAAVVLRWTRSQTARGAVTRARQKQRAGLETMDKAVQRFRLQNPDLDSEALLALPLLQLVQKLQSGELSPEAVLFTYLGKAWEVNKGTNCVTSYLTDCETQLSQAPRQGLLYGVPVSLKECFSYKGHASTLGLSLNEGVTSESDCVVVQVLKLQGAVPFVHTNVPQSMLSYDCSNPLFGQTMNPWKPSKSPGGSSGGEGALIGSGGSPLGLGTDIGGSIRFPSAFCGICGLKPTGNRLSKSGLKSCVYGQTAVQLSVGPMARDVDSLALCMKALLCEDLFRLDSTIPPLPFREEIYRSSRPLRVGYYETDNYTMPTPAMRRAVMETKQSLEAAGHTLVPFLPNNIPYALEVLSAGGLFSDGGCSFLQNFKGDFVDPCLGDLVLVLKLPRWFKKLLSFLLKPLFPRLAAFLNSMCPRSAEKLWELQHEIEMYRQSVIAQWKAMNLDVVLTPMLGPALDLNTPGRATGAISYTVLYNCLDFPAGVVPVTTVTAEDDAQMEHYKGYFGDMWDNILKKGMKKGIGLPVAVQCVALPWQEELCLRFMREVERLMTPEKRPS
The assay is described as follows: In vitro competitive activity-based protein profiling, FAAH, mouse. The note with it: read-out: FAAH % inh. 1 μM (mouse).
Method: Biological Evaluation In Vitro Competitive Activity-Based Protein Profiling.
Proteomes (mouse brain membrane fraction for mouse assays; human prefrontal cortex membrane fractions for human assays) (50 mL, 1.0 mg/mL total protein concentration) were preincubated with varying concentrations of inhibitors at 37° C. After 30 min, FP-Rh (1.0 mL, 50 mM in DMSO) was added and the mixture was incubated for another 30 min at 37° C. Reactions were quenched with SDS loading buffer (15 μL—4λ) and run on SDS-PAGE.

As to `O=C(O)c1ccn(C(=O)N2CCC3(CCN(Cc4ccc(N5CCOCC5)cc4Cl)C3)CC2)n1` [Example 169, 1-(2-(2-chloro-4-morpholinobenzyl)-2,8-diazaspiro[4.5]decane-8-carbonyl)-1H-pyrazole-3-carboxylic acid], the inhibition at 1 µM at MAGL [1] lay in the range of 0 to 25%; on MAGL [2] it was 25 to 50%; on FAAH [3], 0 to 25%; on FAAH [4] it was 0 to 25%.
Turning to `O=C(O)c1ccn(C(=O)N2CCC3(CCCN3Cc3ccc(C(F)(F)F)cc3N3C4CCC3COC4)CC2)n1` [Example 82, 1-(1-(2-(3-oxa-8-azabicyclo[3.2.1]octan-8-yl)-4-(trifluoromethyl)benzyl)-1,8-diazaspiro[4.5]decane-8-carbonyl)-1H-pyrazole-3-carboxylic acid], the inhibition at 1 µM at MAGL [1] was more than 75%; at MAGL [2] it was more than 75%; on FAAH [3], 0 to 25%; on FAAH [4], 0 to 25%.
For the compound `O=C(O)c1nn(C(=O)N2CCC3(CC2)CN(Cc2cc(Cl)ccc2C(F)(F)F)C3)cc1Cl` [Example 134, 4-chloro-1-(2-(5-chloro-2-(trifluoromethyl)benzyl)-2,7-diazaspiro[3.5]non-ane-7-carbonyl)-1H-pyrazole-3-carboxylic acid], the inhibition at 1 µM is more than 75% at MAGL [1], more than 75% on MAGL [2], more than 75% on FAAH [3] and 50 to 75% on FAAH [4]. On FAAH [3], this compound yielded an IC50 of 100 to 1000 nM.
For `O=C(O)c1ccn(C(=O)N2CCN(Cc3cccc(Oc4ccncc4)c3)CC2)n1` [Example 59, 1-(4-(3-(pyridin-4-yloxy)benzyl)piper-azine-1-carbonyl)-1H-pyrazole-3-carboxylic acid], the inhibition at 1 µM at MAGL [1] was more than 75%; on MAGL [2] it was more than 75%; at FAAH [3], 0 to 25%; at FAAH [4], 0 to 25%.
Take `O=C(O)c1ccn(C(=O)N2CCN(Cc3ccc(C(F)(F)F)cc3-c3nnco3)CC2)n1` [Example 69, 1-(4-(2-(1,3,4-oxadiazol-2-yl)-4-(trifluoromethyl)benzyl)piperazine-1-carbonyl)-1H-pyrazole-3-carboxylic acid]: the inhibition at 1 µM on MAGL [1] is more than 75%; on MAGL [2], more than 75%; on FAAH [3] it was 0 to 25%; at FAAH [4] it was 0 to 25%.
On to `Cc1c(CN2CCC3(CCN(C(=O)n4ccc(C(=O)O)n4)CC3)C2)cccc1C(F)(F)F` [Example 71, 1-(2-(2-methyl-3-(trifluoromethyl)benzyl)-2,8-diazaspiro[4.5]decane-8-carbonyl)-1H-pyrazole-3-carboxylic acid], for which the inhibition at 1 µM was more than 75% on MAGL [1], more than 75% on MAGL [2], 0 to 25% on FAAH [3] and 0 to 25% on FAAH [4].
Turning to `O=C(O)c1ccn(C(=O)N2C[C@H]3C[C@@H](Oc4cccc(-c5ccccc5)c4)C[C@H]3C2)n1` [Example 164, 1-(cis-5-([1,1′-biphenyl]-3-yloxy)octahydro-cyclopenta[c]pyrrole-2-carbonyl)-1H-pyrazole-3-carboxylic acid], the inhibition at 1 µM at MAGL [1] is more than 75%; on MAGL [2] it was more than 75%; on FAAH [3], more than 75%; at FAAH [4], 25 to 50%. The same compound yielded an IC50 on FAAH [3] of 100 to 1000 nM.
For `O=C(O)c1nn(C(=O)N2CC3CC(OCc4ccccc4Cl)CC3C2)cc1C(F)(F)F` (stereo not shown) [Example 143, 1-(5-((2-chlorobenzyl)oxy)octahydrocyclopenta [c]pyrrole-2-carbonyl)-4-(trifluoromethyl)-1H-pyrazole-3-carboxylic acid], the inhibition at 1 µM is 0 to 25% on MAGL [1], 0 to 25% at MAGL [2], more than 75% on FAAH [3] and more than 75% at FAAH [4]. The IC50 fell in the range of 1000 to 10000 nM on MAGL [2] and 100 to 1000 nM on FAAH [3].
Take `C[C@@H]1CC[C@H](C)N1c1cc(C(F)(F)F)ccc1CN1CCN(C(=O)n2ccc(C(=O)O)n2)CC1` [Example 94, 1-(4-(2-((2R,5S)-2,5-dimethylpyrrolidin-1-yl)-4-(trifluoromethyl)benzyl)piperazine-1-carbonyl)-1H-pyrazole-3-carboxylic acid]: the inhibition at 1 µM on MAGL [1] is more than 75%; at MAGL [2], more than 75%; at FAAH [3], 0 to 25%; on FAAH [4], 0 to 25%.
As for `O=C(O)c1ccn(C(=O)N2CCC3(CCN(Cc4ccc(Cl)cc4N4CCCC4)C3)CC2)n1` [Example 171, 1-(2-(4-chloro-2-(pyrrolidin-1-yl)benzyl)-2,8-diazaspiro[4.5]decane-8-carbonyl)-1H-pyrazole-3-carboxylic acid], the inhibition at 1 µM is more than 75% on MAGL [1], more than 75% on MAGL [2], 0 to 25% at FAAH [3] and 0 to 25% on FAAH [4]. The IC50 at MAGL [2] lay in the range of 100 to 1000 nM; at FAAH [3], 1000 to 10000 nM.
As to `O=C(O)c1ccn(C(=O)N2CCN(Cc3cc(N4CCCC4)cc(C(F)(F)F)c3)CC2)n1` [Example 87, 1-(4-(3-(pyrrolidin-1-yl)-5-(trifluoromethyl)benzyl)piperazine-1-carbonyl)-1H-pyrazole-3-carboxylic acid], the inhibition at 1 µM on MAGL [1] is more than 75%; at MAGL [2], more than 75%; at FAAH [3] it was 0 to 25%; on FAAH [4], 0 to 25%.
As to `C#Cc1ccc(CN2CCN(C(=O)n3ccc(C(N)=O)n3)CC2)cc1` [Example 144, 1-(4-(4-ethynylbenzyl)piper-azine-1-carbonyl)-1H-pyrazole-3-carboxamide], the inhibition at 1 µM at MAGL [1], on MAGL [2], on FAAH [3] and on FAAH [4] was more than 75% each time.
For the compound `O=C(O)c1ccn(C(=O)N2CCC3(CCN(Cc4ccc(C(F)(F)F)cc4Cl)C3)CC2)n1` [Example 77, 1-(2-(2-chloro-4-(trifluoromethyl)benzyl)-2,8-diazaspiro[4.5]decane-8-carbonyl)-1H-pyrazole-3-carboxylic acid], the inhibition at 1 µM on MAGL [1] is more than 75%; at MAGL [2], more than 75%; at FAAH [3], 0 to 25%; at FAAH [4], 0 to 25%. Further, the IC50 at FAAH [3] fell in the range of 1000 to 10000 nM.
Regarding `O=C(O)c1ccn(C(=O)N2CC3CN(Cc4ccc(Cl)c(N5CC6COCC6C5)c4)CC3C2)n1` (stereo not shown) [Example 166, 1-(5-(4-chloro-3-(tetrahydro-1H-furo[3,4-c]pyrrol-5(3H)-yl)benzyl)octahydropyrrolo[3,4-c]pyrrole-2-carbonyl)-1H-pyrazole-3-carboxylic acid], the inhibition at 1 µM on MAGL [1] was more than 75%; at MAGL [2] it was 50 to 75%; on FAAH [3] it was 0 to 25%; on FAAH [4], 0 to 25%.
In the case of `NC(=O)c1ccc(CN2CCN(C(=O)n3ccc(C(=O)O)n3)CC2)cc1C(F)(F)F` [Example 14, 1-(4-(4-Carbamoyl-3-(trifluoromethyl)benzyl)piperazine-1-carbonyl)-1H-pyrazole-3-carboxylic Acid], the inhibition at 1 µM at MAGL [1] lay within 25 to 50%; at MAGL [2], 25 to 50%; on FAAH [3], 0 to 25%; at FAAH [4] it was 0 to 25%.
